From US8853406B2, “Substituted phenylenediamines as inhibitors of the interaction between MDM2 and P53” (Janssen Pharmaceutica NV, priority 2007, dated 2014)

What was measured:
p53 in A2780 cells = experiment: p53 ELISA in A2780 cells (capacity to preserve p53); format: cell-based; conditions: lowest dose giving at least 140% of the p53 value of the control, 16 hours
Protocol: The capacity of the compounds to preserve p53 in A2780 cells was measured with the p53 enzyme linked immunosorbent assay. The p53 assay is a “sandwich” enzyme immunoassay employing two polyclonal antibodies. A polyclonal antibody, specific for the p53 protein, has been immobilized onto the surface of the plastic wells. Any p53 present in the sample to be assayed will bind to the capture antibody. The biotinylated detector polyclonal antibody also recognizes p53 protein, and will bind to any p53, which has been retained by the capture antibody. The detector antibody, in turn, is bond by horseradish peroxidase-conjugated streptavidin. The horseradish peroxidase catalyses the conversion of the chromogenic substrate o-phenylene diamine, the intensity of which is proportional to the amount of p53 protein bond to the plate. The colored reaction product is quantified using a spectrophotometer. Quantitation is achieved by the construction of a standard curve using known concentrations of purified recombinant HIS tagged p53 protein (see example C.1.).
A2780 cells (ATCC) were cultivated in RPMI 1640 supplemented with 10% fetal calf serum (FCS), 2 mM L-glutamine and gentamycin at 37° C. in a humidified incubator with 5% CO2.
A2780 cells were seeded at 20.000 cells per well in a 96 well plate, cultured for 24 hours and treated with compound for 16 hours at 37° C. in a humidified incubator. After incubation, the cells were washed once with phosphate-buffered saline and 30 μl, per well, low salt RIPA buffer (20 mM tris, pH7.0, 0.5 mM EDTA, 1% Nonidet P40, 0.5% DOC, 0.05% SDS, 1 mM PMSF, 1 μg/ml aprotinin and 0.5 μ/ml leupeptin) was added. Plates were placed on ice for 30 minutes to complete the lysis. p53 protein was detected in de lysates by using the sandwich ELISA, described below.
High binding polystyrene EIA/RIA 96 well plates (Costar 9018) were coated with the capture antibody pAb1801 (Abcam ab28-100) at a concentration of 1 μg/ml in coating buffer (0.1 M NaHCO3 pH8.2), 50 μl per well. The antibody was allowed to adhere overnight at 4° C. Coated plates were washed once with phosphate-buffered saline (PBS)/0.05% Tween 20 and 300 μl of blocking buffer (PBS, 1% bovine serum albumins (BSA)) was added, for an incubation period of 2 hours at room temperature. Dilutions of purified recombinant HIS tagged p53 protein, ranging from 3-200 ng/ml, were made in blocking buffer and used as standards.
Plates were washed twice with PBS/0.05% Tween 20 and blocking buffer or standards were added at 80 μl/well. To the standards, 20 μl of lysis buffer was added. The samples were added to the other wells at 20 μl lysate/well. After an overnight incubation at 4° C., plates were washed twice with PBS/0.05% Tween 20. Aliquots of 100 μl secondary polyclonal antibody p53(FL-393) (Tebubio, sc-6243) at a concentration of 1 μg/ml in blocking buffer were added to each well and allowed to adhere for 2 hours at room temperature. Plates were washed three times with PBS/0.05% Tween 20. Detection antibody anti-rabbit HRP (sc-2004, Tebubio) at 0.04 μg/ml in PBS/1% BSA was added and incubated for 1 hour at room temperature. Plates were washed three times with PBS/0.05% Tween 20 and 100 μl of substrate buffer was added (substrate buffer was prepared shortly before use by adding 1 tablet of 10 mg o-phenylene diamine (OPD) from Sigma and 125 μl 3% H2O2 to 25 ml OPD buffer: 35 mM citric acid, 66 mM Na2HPO4, pH5.6). After 5 to 10 minutes, colour reaction was stopped by adding 50 μl stop buffer (1 M H2SO4) per well. The absorbance at dual wavelengths of 490/655 nm was measured using a Biorad micro plate reader and the results were then analyzed.
For each experiment, controls (containing no drug) and a blank incubation (containing no cells or drugs) were run in parallel. The blank value was subtracted from all control and sample values. For each sample, the value of p53 (in absorbance units) was expressed as the percentage of the value for p53 present in the control. […]

Male NMRI mice = experiment: Ro-4-1284 antagonism in mice (drug induced neurological effects); format: in vivo; conditions: for activity on observations in Ro-4-1284 antagonism test: 80 mg/kg, oral administration, 3 animals; for drug induced neurological side effects: Ro-4-1284 antagonism in mice
Protocol: The test is a modification of a procedure described by Colpaert et al. (1975).^3 Male NMRI mice (22±3 g) were housed in macrolon observation cages (L×W×H: 11×12×17 cm; n=3 per cage). At the start of the experiments immediately before test compound administration, the initial body temperature of the mice was measured with a precision of 0.1° C. by inserting the thermo-sensitive probe (1.0 mm diameter) of an electric thermometer (Comark) to a constant depth of 3 cm into the esophagus until a stable reading was obtained. The right eye pupil diameter was measured with a graduated microscope and expressed in 1/24 mm units. Fifteen min after test compound administration, the mice were challenged with Ro-4-1284 (10 mg/kg, s.c.). Ro-4-1284 is a reserpine-like vesicular monoamine transport (VMAT-2) inhibitor, which rapidly depletes secretory vesicles.^3,4 Fifteen, 30 and 60 min after challenge, the mice were scored for palpebral opening (0, 1, 2, 3, 4, 5) and locomotor activity (−1, 0, 1, 2, 3). At the 60-min interval, immediately after the scoring of overt behavior, the right eye pupil diameter and the esophageal temperature were measured again. Abnormal phenomena such as intensive sniffing, chewing, rearing, hyperemia, piloerection, salivation, tremors, convulsions and death were noted (the latter phenomena were also noted when occurring before Ro-4-1284 administration). Criteria for drug-induced effects: reversal of ptosis: palpebral opening score >1 at 15, 30 or 60 min (2.7, 0.5 and 0% false positive controls, respectively; n>350); induction of prostration: score −1 for locomotion at 15, 30 or 60 min (never observed in controls); reversal of hypomotility: score >0 for locomotion at 15, 30 and 60 min (2.2, 0.8 and 0% false positive controls, respectively); reversal of miosis: pupil diameter >5 units at 60 min (0.8% false positives); potentiation of hypothermia: temperature decrease (over the 1-h time interval)>9.0° C. (1.4% false positives); reversal of hypothermia: temperature decrease <3.0° C. (1.8% false positives).
According to the standard procedure, R0-4-1284 is injected 15 min following subcutaneous or oral administration and observations start 15 min later. Doses are initially given to 3 animals. When at least 2 out of the 3 animals show activity for at least one of the observations, the compound is considered active.

SMILES: Cc1cc(Nc2ccnc3c2CCC3O)ccc1NCCc1c[nH]c2c(C)cccc12 (single isomer, unassigned) [Compound No. 1]
- A2780 p53-elisa LAD (p53 in A2780 cells; listed as drawing 35): 3.00E-08
- activity on observations in Ro-4-1284 antagonism test (Male NMRI mice): did not show activity on any observation on any animal
- drug induced neurological side effects (Male NMRI mice): No

SMILES: Cc1cc(Nc2ccnc3c2CCC3O)ccc1NCCc1c[nH]c2c(C)cccc12 (single isomer, unassigned) [Compound No. 2]
- A2780 p53-elisa LAD (p53 in A2780 cells; listed as drawing 36): 1.00E-07
- activity on observations in Ro-4-1284 antagonism test (Male NMRI mice): did not show activity on any observation on any animal
- drug induced neurological side effects (Male NMRI mice): No
